These results are taken from patent US20250281649A1, “PROBE DIRECTED TO ENZYME ALDH1A3 AND USE THEREOF IN THE DIAGNOSIS OF GLIOBLASTOMA” (Universita' Degli Studi Del Piemonte Orientale "A. Avogadro", priority 2021, published 2025).

Like-named read-outs stand apart in the source and are kept apart here.

The target of data set [1] is T1, ALDH1A3 (Homo sapiens, UniProt P47895).
T1 construct: His-tag; made in house; host or cells: bacterial cells
T1 sequence (P47895 1-512): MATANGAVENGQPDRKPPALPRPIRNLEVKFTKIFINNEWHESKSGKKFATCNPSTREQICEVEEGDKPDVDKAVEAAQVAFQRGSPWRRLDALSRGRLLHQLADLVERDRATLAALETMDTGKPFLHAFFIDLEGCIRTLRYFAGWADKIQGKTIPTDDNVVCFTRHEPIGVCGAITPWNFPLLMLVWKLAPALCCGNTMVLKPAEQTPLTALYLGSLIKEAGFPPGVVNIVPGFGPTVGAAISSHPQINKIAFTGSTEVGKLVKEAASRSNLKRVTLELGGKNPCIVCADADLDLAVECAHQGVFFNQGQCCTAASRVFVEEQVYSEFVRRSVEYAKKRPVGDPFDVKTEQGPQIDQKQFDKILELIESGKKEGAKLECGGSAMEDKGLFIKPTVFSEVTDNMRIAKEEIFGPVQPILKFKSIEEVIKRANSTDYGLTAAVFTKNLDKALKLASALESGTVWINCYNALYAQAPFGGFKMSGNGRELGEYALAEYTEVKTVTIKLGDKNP
The data set can be described thus: KD evaluation by probe fluorescence (Tecan SPARK). The class given is binding. As to the method: (§1) A common protocol to express and purify all three members of the ALDHIA subfamily has been optimized. Briefly, induced cells, collected by centrifugation, were re-suspended in an appropriate volume of lysis buffer (50 mM Na2HPO4, 300 mM NaCl, 1 mM β-mercaptoethanol, 20 mM imidazole, pH 7.5) added of benzonase nuclease (250 U/μL) and Protease inhibitor cocktail from SIGMA. After ultracentrifugation, the clarified sample was purified by a His-tag affinity chromatography followed by size-exclusion chromatography, using an AKTA FPLC system, at 4° C. To evaluate the purity and homogeneity of the protein, after each purification step, eluted d fractions were analyzed by SDS-PAGE and the protein quantification was always determined by Bradford protein assay.
(§2) KD evaluation: on a Tecan—SPARK, probe 14 and 13 were tested at a fixed concentration of 10 μM. All the isoenzymes were tested in wide range of concentrations (from 100 μM to 1 μM). The analysis was settled with a BW of 20, monitoring the Em wavelength in range comprised between 520 and 535 nm for probe 14 and 520 and 580 nm for probe 13. The Ex was fixed at 420 nm for probe 14 and 440 nm for probe 13. The test was performed in quadruplicate with all the three isoenzymes. The recipe of the buffer reaction was the same as described before.

Data set [2] concerns the target T2, ALDH1A2 (Homo sapiens, UniProt O94788).
T2 construct: His-tag; made in house; host or cells: bacterial cells
T2 sequence (O94788 1-518): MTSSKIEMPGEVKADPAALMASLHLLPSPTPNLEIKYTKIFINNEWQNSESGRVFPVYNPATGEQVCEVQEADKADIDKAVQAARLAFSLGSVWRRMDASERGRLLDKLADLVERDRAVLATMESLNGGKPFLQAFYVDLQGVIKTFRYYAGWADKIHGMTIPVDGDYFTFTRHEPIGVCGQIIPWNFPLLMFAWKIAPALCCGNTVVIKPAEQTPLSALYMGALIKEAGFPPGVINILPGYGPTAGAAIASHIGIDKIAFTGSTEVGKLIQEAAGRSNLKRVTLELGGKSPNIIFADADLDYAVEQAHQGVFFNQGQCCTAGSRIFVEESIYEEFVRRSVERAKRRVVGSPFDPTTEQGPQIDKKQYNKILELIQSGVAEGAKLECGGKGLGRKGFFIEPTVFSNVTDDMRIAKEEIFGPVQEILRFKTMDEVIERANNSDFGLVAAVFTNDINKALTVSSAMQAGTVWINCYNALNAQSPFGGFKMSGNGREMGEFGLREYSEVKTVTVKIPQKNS
The data set can be described thus: KD evaluation by probe fluorescence (Tecan SPARK). Particulars: probe fixed at 10 μM, isoenzyme 100 μM to 1 μM. The class given is binding. The method, then: as §1, §2

Data set [3] concerns the target T3, ALDH1A1 (Homo sapiens, UniProt P00352).
T3 construct: His-tag; made in house; host or cells: bacterial cells
T3 sequence (P00352 1-501): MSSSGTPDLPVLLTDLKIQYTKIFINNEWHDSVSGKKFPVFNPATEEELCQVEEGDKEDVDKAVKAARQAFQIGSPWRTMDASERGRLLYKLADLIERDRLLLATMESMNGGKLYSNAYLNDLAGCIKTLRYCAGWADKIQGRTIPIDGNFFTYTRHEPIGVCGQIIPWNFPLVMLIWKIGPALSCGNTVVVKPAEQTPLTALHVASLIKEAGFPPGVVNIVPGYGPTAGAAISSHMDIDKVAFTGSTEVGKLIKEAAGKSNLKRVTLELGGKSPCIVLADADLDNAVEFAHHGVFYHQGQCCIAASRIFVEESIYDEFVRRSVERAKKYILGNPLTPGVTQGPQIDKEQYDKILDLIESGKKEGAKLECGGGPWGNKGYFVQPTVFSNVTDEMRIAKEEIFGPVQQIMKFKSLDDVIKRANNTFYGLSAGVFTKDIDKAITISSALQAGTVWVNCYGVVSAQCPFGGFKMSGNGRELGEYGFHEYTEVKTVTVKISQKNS
Briefly: KD evaluation by probe fluorescence (Tecan SPARK). The class given is binding. To be noted: probe fixed at 10 μM, isoenzyme 100 μM to 1 μM. As to the method:
as §1, §2

The target in data set [4] is T1, ALDH1A3. The data set can be described thus: Fluorescence of probes in buffer and in complex with the isoenzymes (Tecan SPARK). The class given is binding. Particulars: in complex with the three isoenzymes, in particular ALDH1A3. As to the method: All five compounds were dissolved in DMSO (100%) to obtain two different initial stocks, one at 10 mM and a second one at 1 mM. […] The assay can be executed at a maximum DMSO percentage of 15%. The maximum probe concentration tested was 500 uM—15% DMSO. All the compounds were tested using a Tecan—SPARK, to analyze their absorbance, excitation and emission wavelength. Based on the literature, the absorbance of the curcumin by itself is comprised between 420 and 425 nm. At first, we measured the absorbance, and from those values, we performed a 3D analysis to highlights the correct Ex and Em wavelengths. To avoid any possible background in the fluorescence signal we performed a screening of every possible buffer used in our assays.

In data set [5] the target is T1, ALDH1A3. Briefly: IC50 evaluation, NADH formation at 340 nm (Tecan SUNRISE). The class given is biochemical. The method, then: as §1
(§3) IC50 evaluation: on a Tecan—SUNRISE, probe 13 was tested in a serial dilution series from 200 μM to 3, 125 μM, against all the three isoenzymes. The recipe of reaction buffer was: 20 mM Tris HCl pH=8, 150 mM KCl, 1 mM B-mercaptoethanol, 500 μM NAD^+, 15% DMSO fixed, 20 mM acetaldehyde and 2.7 μM each isoenzyme. The analysis was conducted measuring the NADH formation, that has a specific absorbance wavelength (340 nm). The test was performed in triplicate with all the three isoenzymes.

In data set [6] the target is T2, ALDH1A2. The description is as above. The class given is biochemical. To be noted: 20 mM acetaldehyde, 500 μM NAD+, 15% DMSO, 2.7 μM isoenzyme. The method, then: as §1, §3
Data set [7] concerns the target T3, ALDH1A1. Described as above. It is filed as biochemical. The method, then: as §1, §3
Substrate in data set [8]: COc1cc(/C=C/C(=O)/C=C(O)/C=C/c2ccc(OCc3cn(CCOc4ccc(C=O)cc4)nn3)c(OC)c2)ccc1O
Briefly: KM evaluation, compound as possible substrate, NADH formation. It is filed as biochemical, human. Particulars: 5% DMSO, pH 7.5. The method, then: as §1
KM evaluation: on a Tecan—SUNRISE, due to the inconsistency of result of the KD evaluation with probe 13 and to its chemistry nature (benzaldehyde), we performed an analysis to evaluate this compound possible substrate. The compound was tested in a serial dilution from 300 to 3.125 μM, at 5% DMSO. The analysis was conducted measuring the NADH formation, that has a specific absorbance wavelength (340 nm). The recipe of the buffer reaction was the same as described before. The assay was performed only for ALDH1A1 and ALDH1A2. The test was performed in triplicate with all the three isoenzymes.

Where [9] appears, read: ALDH1A3, probe fixed at 10 μM, isoenzyme 100 μM to 1 μM, read-out: KD.
Where [10] appears, read: ALDH1A3, 20 mM acetaldehyde, 500 μM NAD+, 15% DMSO, 2.7 μM isoenzyme, read-out: IC50.
The mark [11] stands for this setting: ALDH1A1, 20 mM acetaldehyde, 500 μM NAD+, 15% DMSO, 2.7 μM isoenzyme, read-out: IC50.

In general, Kd refers to the equilibrium constant for the complex coming apart. As a reminder, the IC50 is the concentration that gives 50% inhibition. Broadly, the Km is the substrate concentration at which the rate is half of its maximum.

As for `COc1cc(/C=C/C(O)=C/C(=O)/C=C/c2ccc(N(C)C)cc2)ccc1OCc1cn(CCOc2ccc(C=O)cc2)nn1` [Compound 15], the Kd stood at 20.4 µM on ALDH1A3 [1] (setting [9]), 8.7 µM on ALDH1A2 [2] and 23.9 µM on ALDH1A1 [3]. Further, the “increase of fluorescence in complex with the isoenzymes” value at ALDH1A3 [4] is “no good result”. Also, the results for the IC50 on ALDH1A3 [5] (setting [10]), against ALDH1A2 [6] and at ALDH1A1 [7] (setting [11]) were 5.1 µM, “N.I” and 28.5 µM, respectively.

For `CCOP(=O)(OCC)Oc1ccc(/C=C/C(=O)/C=C(O)/C=C/c2ccc(OCc3cn(CCOc4ccc(C=O)cc4)nn3)c(OC)c2)cc1OC` [Compound 16], on ALDH1A3 [1], the Kd amounted to 55.7 µM. For the same molecule, the “increase of fluorescence in complex with the isoenzymes” value at ALDH1A3 [4] was “no good result”. For the same molecule, the IC50 was 8.5 µM against ALDH1A3 [5], “N.I” on ALDH1A2 [6] and 150 µM against ALDH1A1 [7].

As to `CCOC(=O)Cn1cc(COc2ccc(C=CC(=O)C=C(O)C=Cc3ccc(OP(=O)(OCC)OCC)c(OC)c3)cc2OC)nn1` [Compound 17], the equilibrium dissociation constant (Kd) amounted to 14.9 µM at ALDH1A3 [1] (setting [9]) and 18.1 µM at ALDH1A1 [3]. The IC50 on ALDH1A3 [5] (setting [10]) was 158 µM; against ALDH1A2 [6] it was “N.I”; at ALDH1A1 [7] (setting [11]) it was 70.1 µM.

B1: ALDH1A1 (Homo sapiens) (protein)
chain: T3 sequence (P00352 1-501)
notes: His-tag; made in house; host or cells: bacterial cells
As to B1, in data set [8] (other: ALDH1A1, 300 to 3.125 μM), the Km was 255.2 µM.

B2: ALDH1A2 (Homo sapiens) (protein)
chain: T2 sequence (O94788 1-518)
notes: as for B1
B2: the Km in data set [8] (other: ALDH1A2, 300 to 3.125 μM) is 220.0 µM.
